Laboratory results as given in ChEMBL document CHEMBL1938296, “Steroidal C-21 heteroaryl thioethers (Part 2): discovery of orally bioavailable selective glucocorticoid receptor modulators (dissociated steroids)” (Bioorg Med Chem Lett, 2012).

Assays:
[1] = biological target: T1, Glucocorticoid receptor (Homo sapiens, UniProt P04150); assay: Transactivation of glucocorticoid receptor in human HepG2 cells assessed as induction of TAT measuring degradation of tyrosine to p-hydroxy phenyl pyruvate at 1 uM relative to untreated control; format: cell-based; settings: hepg2, 1 µM
T1 sequence (P04150 whole entry): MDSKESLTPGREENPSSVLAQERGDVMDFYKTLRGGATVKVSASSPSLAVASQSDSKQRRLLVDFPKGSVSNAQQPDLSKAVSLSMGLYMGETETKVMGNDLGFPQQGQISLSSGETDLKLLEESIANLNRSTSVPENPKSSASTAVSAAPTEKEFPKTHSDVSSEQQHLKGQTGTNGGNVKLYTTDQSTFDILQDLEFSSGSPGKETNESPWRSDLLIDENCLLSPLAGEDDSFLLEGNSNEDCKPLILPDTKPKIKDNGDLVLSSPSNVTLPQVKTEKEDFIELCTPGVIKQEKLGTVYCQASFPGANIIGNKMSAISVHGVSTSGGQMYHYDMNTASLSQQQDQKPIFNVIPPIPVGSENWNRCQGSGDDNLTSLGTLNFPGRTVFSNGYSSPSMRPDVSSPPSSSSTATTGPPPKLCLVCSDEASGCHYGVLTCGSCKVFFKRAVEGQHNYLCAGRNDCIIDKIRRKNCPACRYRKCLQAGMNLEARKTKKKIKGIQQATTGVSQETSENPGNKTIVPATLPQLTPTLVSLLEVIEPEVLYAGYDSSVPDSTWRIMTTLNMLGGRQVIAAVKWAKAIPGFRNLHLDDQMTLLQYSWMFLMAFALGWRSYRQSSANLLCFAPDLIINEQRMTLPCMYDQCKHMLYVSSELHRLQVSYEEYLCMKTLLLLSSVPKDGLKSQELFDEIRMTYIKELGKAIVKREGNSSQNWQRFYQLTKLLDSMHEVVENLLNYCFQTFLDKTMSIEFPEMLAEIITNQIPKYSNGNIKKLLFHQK

[2] = biological target: T2, Glucocorticoid receptor (Rattus norvegicus, UniProt P06536); assay: Transactivation of glucocorticoid receptor in rat H42E cells assessed as induction of TAT measuring degradation of tyrosine to p-hydroxy phenyl pyruvate at 1 uM relative to prednisolone; format: cell-based; settings: read-out: Efficacy
T2 sequence (P06536 whole entry): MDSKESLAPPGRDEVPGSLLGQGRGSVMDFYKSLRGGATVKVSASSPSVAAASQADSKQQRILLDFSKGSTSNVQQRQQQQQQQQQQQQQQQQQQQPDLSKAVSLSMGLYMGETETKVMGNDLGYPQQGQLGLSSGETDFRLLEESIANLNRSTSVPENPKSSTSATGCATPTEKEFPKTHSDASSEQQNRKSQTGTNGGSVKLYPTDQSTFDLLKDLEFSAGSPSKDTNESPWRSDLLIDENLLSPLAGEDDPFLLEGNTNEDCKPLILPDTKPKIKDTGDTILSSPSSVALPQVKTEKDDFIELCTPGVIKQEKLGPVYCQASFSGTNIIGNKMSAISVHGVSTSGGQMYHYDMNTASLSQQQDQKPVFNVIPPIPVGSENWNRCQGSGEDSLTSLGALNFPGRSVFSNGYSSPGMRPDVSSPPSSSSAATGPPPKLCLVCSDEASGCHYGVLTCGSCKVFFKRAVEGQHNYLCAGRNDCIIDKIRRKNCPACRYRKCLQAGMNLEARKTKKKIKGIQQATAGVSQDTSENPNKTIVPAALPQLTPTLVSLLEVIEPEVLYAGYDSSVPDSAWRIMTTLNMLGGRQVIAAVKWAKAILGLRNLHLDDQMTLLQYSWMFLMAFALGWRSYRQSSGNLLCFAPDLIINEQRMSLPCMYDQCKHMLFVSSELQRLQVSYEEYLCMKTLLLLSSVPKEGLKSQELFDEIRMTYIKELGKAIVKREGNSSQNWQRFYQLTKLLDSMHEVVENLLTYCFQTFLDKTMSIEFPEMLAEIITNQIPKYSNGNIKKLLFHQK

[3] = biological target: T1, Glucocorticoid receptor; assay: Transrepression activity at glucocorticoid receptor in human H292 cells assessed as inhibition of TNF-stimulated IL-8 production; format: cell-based
[4] = biological target: T1, Glucocorticoid receptor; assay: Transactivation of glucocorticoid receptor in human HepG2 cells assessed as induction of TAT measuring degradation of tyrosine to p-hydroxy phenyl pyruvate; format: cell-based; settings: read-out: IC50 (the source's name)
[5] = biological target: T2, Glucocorticoid receptor; assay: Transactivation of glucocorticoid receptor in rat H42E cells assessed as induction of TAT measuring degradation of tyrosine to p-hydroxy phenyl pyruvate; format: cell-based; settings: read-out: IC50 (the source's name)
[6] = system: Rattus norvegicus; assay: Antiinflammatory activity against Brown Norway rat allergic lung inflammation model assessed as total cell inhibition at 10 mg/kg, po for 3 days; format: functional; design: scale not given: the % may be the effect or the level left
[7] = system: Rattus norvegicus; assay: Toxicity in Brown Norway rat allergic lung inflammation model assessed as decrease in thymus weight at 10 mg/kg, po for 3 days; format: organism-based; design: dose 10 mg/kg, route oral; scale not given: the % may be the effect or the level left; settings: in vivo, 72 h
[8] = AUC in Brown Norway rat at 10 mg/kg, po; format: ADME, organism-based; design: dose 10 mg/kg, route oral; settings: plasma

Row | Structure (SMILES) | Efficacy [1] [%] | Emax at 1 µM [2] [%] | IC50 [3] [nM] | EC50 [4] [nM] | EC50 [5] [nM] | AUC [8] [ng·h/mL] | Activity [6] [%] | Activity [7] [%]
1 | C[C@]12C=CC(=O)C=C1CC[C@@H]1[C@@H]2[C@@H](O)C[C@@]2(C)[C@H]1CC[C@]2(O)C(=O)CSc1nc2cccnc2s1 | 6 | 7 | 118 | – | – | – | – | –
2 | C[C@]12C=CC(=O)C=C1CC[C@@H]1[C@@H]2[C@@H](O)C[C@@]2(C)[C@H]1CC[C@]2(O)C(=O)CSc1ccccn1 | 22 | 23 | 43.8 | 238 | 707 | – | – | –
3 | Cc1ccnc(SCC(=O)[C@@]2(O)CC[C@H]3[C@@H]4CCC5=CC(=O)C=C[C@]5(C)[C@H]4[C@@H](O)C[C@@]32C)n1 | 6 | 6 | 11.4 | – | – | – | – | –
4 | C[C@]12C=CC(=O)C=C1CC[C@@H]1[C@@H]2[C@@H](O)C[C@@]2(C)[C@H]1CC[C@]2(O)C(=O)CSc1nc2ccccc2s1 | – | 19 | – | – | – | 1220 | 45 | 15
5 | C[C@@H]1C[C@H]2[C@@H]3CCC4=CC(=O)C=C[C@]4(C)[C@H]3[C@@H](O)C[C@]2(C)[C@@]1(O)C(=O)CO | 125 | – | 1.6 | 15.7 | – | – | – | –
6 | C[C@]12C=CC(=O)C=C1CC[C@@H]1[C@@H]2[C@@H](O)C[C@@]2(C)[C@H]1CC[C@]2(O)C(=O)CSc1ncc2ccccc2n1 | 10 | 2 | 68.7 | – | – | 606 | 46 | 11
7 | C[C@]12C=CC(=O)C=C1CC[C@@H]1[C@@H]2[C@@H](O)C[C@@]2(C)[C@H]1CC[C@]2(O)C(=O)CSc1ccc2ccccc2n1 | 52 | 56 | 70.2 | 262 | 361 | 1200 | 21 | 0
8 | C[C@@H]1C[C@H]2[C@@H]3CCC4=CC(=O)C=C[C@]4(C)[C@H]3[C@@H](O)C[C@]2(C)[C@@]1(O)C(=O)CSc1nc2ccccc2n1C | 13 | 2 | 69.3 | – | – | – | – | –
9 | C[C@]12C=CC(=O)C=C1CC[C@@H]1[C@@H]2[C@@H](O)C[C@@]2(C)[C@H]1CC[C@]2(O)C(=O)CSc1nc2ccccc2o1 | 22 | 32 | 13.5 | – | – | 26 | – | –
10 | CCn1c(SCC(=O)[C@@]2(O)CC[C@H]3[C@@H]4CCC5=CC(=O)C=C[C@]5(C)[C@H]4[C@@H](O)C[C@@]32C)nc2ccccc21 | 9 | 10 | 41.3 | – | – | – | – | –
11 | C[C@]12C=CC(=O)C=C1CC[C@@H]1[C@@H]2[C@@H](O)C[C@@]2(C)[C@H]1CC[C@]2(O)C(=O)CSc1nc2ncccc2[nH]1 | 7 | 2 | 57.2 | – | – | – | – | –
12 | C[C@]12C=CC(=O)C=C1CC[C@@H]1[C@@H]2[C@@H](O)C[C@@]2(C)[C@H]1CC[C@]2(O)C(=O)CSc1nc(-c2ccccc2)cs1 | 42 | 9 | 305 | – | – | – | – | –
13 | C[C@@H]1C[C@H]2[C@@H]3CCC4=CC(=O)C=C[C@]4(C)[C@H]3[C@@H](O)C[C@]2(C)[C@@]1(O)C(=O)CSc1ccc2ccccc2n1 | 19 | 45 | 46.5 | – | 19.2 | 5280 | 73 | 66

Continued, in another order:

Row | Efficacy [1] [%] | Emax at 1 µM [2] [%] | IC50 [3] [nM] | EC50 [4] [nM] | EC50 [5] [nM] | AUC [8] [ng·h/mL] | Structure (SMILES) | Activity [6] [%] | Activity [7] [%]
14 | 27 | 13 | 7 | 722 | 24.1 | 11900 | C[C@@H]1C[C@H]2[C@@H]3CCC4=CC(=O)C=C[C@]4(C)[C@H]3[C@@H](O)C[C@]2(C)[C@@]1(O)C(=O)CSc1nc2cccnc2s1 | 75 | 75
15 | 54 | 3 | 37.9 | – | – | 1950 | C[C@@H]1C[C@H]2[C@@H]3CCC4=CC(=O)C=C[C@]4(C)[C@H]3[C@@H](O)C[C@]2(C)[C@@]1(O)C(=O)CSc1cnc2ccccc2n1 | 85 | 65
16 | – | – | 4.4 | – | – | – | C[C@@H]1C[C@H]2[C@@H]3CCC4=CC(=O)C=C[C@]4(C)[C@H]3[C@@H](O)C[C@]2(C)[C@@]1(O)C(=O)CSc1nc2ccccc2o1 | – | –
17 | 30 | 3 | 36 | – | – | – | C[C@@H]1C[C@H]2[C@@H]3CCC4=CC(=O)C=C[C@]4(C)[C@H]3[C@@H](O)C[C@]2(C)[C@@]1(O)C(=O)CSc1nc2ccccc2[nH]1 | – | –
18 | 30 | 8 | 23.5 | – | – | – | C[C@@H]1C[C@H]2[C@@H]3CCC4=CC(=O)C=C[C@]4(C)[C@H]3[C@@H](O)C[C@]2(C)[C@@]1(O)C(=O)CSc1ncnc2ccccc12 | – | –
19 | 33 | 29 | 1.69 | – | – | – | Cc1cccc(SCC(=O)[C@@]2(O)[C@H](C)C[C@H]3[C@@H]4CCC5=CC(=O)C=C[C@]5(C)[C@H]4[C@@H](O)C[C@@]32C)n1 | – | –
20 | 57 | 65 | 5.1 | 80.3 | 740 | – | C[C@@H]1C[C@H]2[C@@H]3CCC4=CC(=O)C=C[C@]4(C)[C@H]3[C@@H](O)C[C@]2(C)[C@@]1(O)C(=O)CSc1nnc(-c2ccccc2)o1 | – | –
21 | 8 | 6 | 17.6 | – | – | – | C[C@@H]1C[C@H]2[C@@H]3CCC4=CC(=O)C=C[C@]4(C)[C@H]3[C@@H](O)C[C@]2(C)[C@@]1(O)C(=O)CSc1nccc2ccccc12 | – | –
22 | 62 | 35 | 5.8 | 1000 | 230 | – | C[C@@H]1C[C@H]2[C@@H]3CCC4=CC(=O)C=C[C@]4(C)[C@H]3[C@@H](O)C[C@]2(C)[C@@]1(O)C(=O)CSc1nc2ccccc2s1 | – | –
23 | 21 | 29 | 17.2 | – | – | 2940 | C[C@]12C=CC(=O)C=C1CC[C@@H]1[C@@H]2[C@@H](O)C[C@@]2(C)[C@H]1CC[C@]2(O)C(=O)CSc1nc2ncccc2o1 | 56 | 9
24 | 32 | 37 | 6 | – | 135 | – | C[C@@H]1C[C@H]2[C@@H]3CCC4=CC(=O)C=C[C@]4(C)[C@H]3[C@@H](O)C[C@]2(C)[C@@]1(O)C(=O)CSc1nc2ncccc2o1 | – | –
